# Data published in publication PMC8360061, “Search for the Active Ingredients from a 2‐Aminothiazole DMSO Stock Solution with Antimalarial Activity” (Chemmedchem, 2021).
# Where two headings read alike, the source gives them in different places.
# Columns and labels:
# [1] = biological target: PK/LDH (pyruvate kinase and lactate dehydrogenase); assay: PK/LDH auxiliary enzyme assay; assay type: biochemical
# Experimental: Firstly, we performed a temperature‐dependent decomposition study of compound 1 at 10 mM concentration in DMSO at room temperature (RT), +4 °C and −20 °C (SI, Section 2.3). […] Besides visual inspection of the colour changes of the test sample (see Table 2), the decomposition was monitored by HRMS and NMR spectroscopy. […] Furthermore, all three samples were tested for their inhibitory activity against PfIspE after the incubation period. […] In the IspE assay, the activity of the target enzyme is coupled to the oxidation of NADH (which can be followed spectrophotometrically at 340 nm) via a cascade of the auxiliary enzymes pyruvate kinase and lactate dehydrogenase (PK/LDH).[10] […] Three samples of compound 1 were tested in PK/LDH assay (Table 2).
# (§1) 1.1 General Procedure for Enzymatic Assay
# (§2) The cloning, expression and purification of Plasmodium falciparum[1] and Escherichia coli[2,3] and their subsequent assays followed the previously reported procedures .[1] In some specified cases, the tested compound was dissolved in methanol or acetonitrile for the assay .
# (§3) Due to the nature of the study, some decomposition samples w ere only tested once and thus, for some formal standard error, […]
# (§4) For the final purified compounds, replicates were measured and standard deviation was calculated at least from two replicates. […]
# (§5) 2.) Decomposition Study Procedure
# (§6) All reagents and solvents were of commercial quality and used without further purification.
# Low resolution mass analytics and purity controls were carried out using an Ultimate 3000-ISQ liquid-chromatography mass spectrometry (LCMS) system (Thermo Fisher Scientific, Dreieich, Germany) consisting of a Dionex UltiMate pump, an autosampler, DAD detector and an ESI quadrupole mass spectrometer. NMR spectra were recorded on a Bruker AV 500 or Ascend 700 (1H, 500 MHz or 700 MHz; 13C, 126 MHz or 175 MHz; 19F, 470 MHz) spectrometer. All spectra were measured in DMSO -d6, methanol-d4, acetone-d6 or acetonitrile-d3 to which reported
# EcIspE = biological target: T1, EcIspE (Escherichia coli, UniProt P62615); assay: EcIspE enzymatic assay (coupled to PK/LDH); assay type: biochemical
# T1 construct: made in house
# From the text: Another approach to address this issue is to perform the IspE assay with one or several orthologues of PfIspE. […] The IspE assay setup was identical for both Pf and EcIspE orthologs except for the target enzyme used. One of the setup requirements was that the enzymatic activity of the auxiliary enzymes PK/LDH exceeded the activity of the target enzyme IspE not less than a factor of ten.[10] We investigated, if the inhibition of the auxiliary enzymes may substantially influence the IC50 values obtained from the coupled IspE assay.
# as §1, §2, §3, §4, §5, §6
# Low resolution mass analytics and purity controls were carried out using an Ultimate 3000-ISQ liquid-chromatography mass spectrometry (LCMS) system (Thermo Fisher […]
# [2] = test system: Plasmodium falciparum drug-sensitive NF54; assay: Antimalarial assay, [3H]hypoxanthine incorporation; assay type: cell-based; conditions: for IC50: Plasmodium falciparum, read-out: PfNF54 IC50
# Experimental: as §3
# For the final purified compounds, replicates were measured and standard deviation was calculated at least from two replicates.
# 1.2 General Procedure for Antimalarial Assay
# Plasmodium falciparum drug-sensitive NF54 (airport strain from The Netherlands, provided by F. Hoffmann-La Roche Ltd) was cultivated in a variation of the medium consisting of RPMI 1640 supplemented with 0.5% ALBUMAX® II, 25 mM Hepes, 25 mM NaHCO3 (pH 7.3), 0.36 mM hypoxanthine, and 100 μg/mL neomycin, as previously described.[4,5] Human erythrocytes served as host cells.
# Cultures were maintained in an atmosphere of 3% O2, 4% CO2, and 93% N2 in humidified modular chambers at 37 °C. Compounds were dissolved in MeOH (10 mM), diluted in hypoxanthine-free culture medium and titrated in duplicates over a 64-fold range in 96 well plates. Infected erythrocytes (1.25% final hematocrit and 0.3% final parasitemia) were added into the wells. After 48 h incubation, 0.25 μCi of [3H]hypoxanthine was added per well and plates were incubated for an additional 24 h. Parasites were harvested onto glass-fiber filters and radioactivity was counted using a Betaplate liquid scintillation counter (Wallac, Zurich). Chloroquine […]
# The results were recorded and expressed as a percentage of the untreated controls. Fifty percent inhibitory concentrations (IC50) were estimated by linear interpolation.[6] […]
# A549 = assay: Cytotoxicity assay A549; assay type: cell-based; conditions: Homo sapiens, old sample before becoming aware of the decomposition, read-out: %-inh. A549
# Experimental: as §3, §4
# (§7) 1.3 General Procedure for Cytotoxicity Assay
# (§8) Cytotoxicity assays based on the human lung adenocarcinoma (A549), human embryonic kidney (Hek293) and human hepatocellular carcinoma (HepG2) cell lines were performed as described previously.[7] […]
# HEK293 = assay: Cytotoxicity assay HEK293; assay type: cell-based; conditions: Homo sapiens, old sample before becoming aware of the decomposition, read-out: %-inh. HEK293
# Experimental: as §3, §4, §7, §8
# HepG2 = assay: Cytotoxicity assay HepG2; assay type: cell-based; conditions: Homo sapiens, old sample before becoming aware of the decomposition, read-out: %-inh. HepG2
# Experimental: as §3, §4, §7, §8
# [3] = 10 mM DMSO stock stored at +4 °C, measured after 3 months
# [4] = 10 mM DMSO stock stored at RT, measured after 3 months
# [5] = analytical sample, DMSO at RT, 4 days of incubation, dissolved in methanol shortly before the assay
# [6] = old decomposed sample, control run at the same time as the temperature study
# T1 sequence (P62615 whole entry): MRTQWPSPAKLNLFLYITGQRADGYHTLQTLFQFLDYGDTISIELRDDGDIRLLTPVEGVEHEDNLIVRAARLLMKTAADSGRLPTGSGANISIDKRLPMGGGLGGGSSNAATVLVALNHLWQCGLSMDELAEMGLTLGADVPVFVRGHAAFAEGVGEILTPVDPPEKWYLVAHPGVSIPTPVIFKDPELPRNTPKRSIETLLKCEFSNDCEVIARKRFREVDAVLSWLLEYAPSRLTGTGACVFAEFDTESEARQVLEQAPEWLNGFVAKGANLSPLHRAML
compound,measurement,setting,value
CCn1c(C)cc(-c2csc(Nc3ccccc3C(F)(F)F)n2)c1C [Compound 1],IC50,[1]; [3],45 ± 6 µM
same,IC50,[1]; [4],34 ± 4 µM
same,IC50,"[1]; 10 mM stock in DMSO at RT, 7 days of incubation",48 ± 16 µM
same,IC50,"[1]; 10 mM stock in DMSO at RT, 9 days of incubation",57 ± 22 µM
same,IC50,"[1]; 10 mM stock in DMSO at RT, 12 days of incubation",2 ± 1 µM
same,IC50,"[1]; 10 mM stock in DMSO at RT, 14 days of incubation",50 ± 11 µM
same,IC50,"[1]; 10 mM stock in DMSO at RT, 16 days of incubation",86 ± 17 µM
same,IC50,[1]; [5],95 ± 21 µM
same,IC50,[1]; [6],40 ± 4 µM
same,IC50,EcIspE; [3],71 ± 10 µM
same,IC50,EcIspE; [4],101 ± 14 µM
same,IC50,"EcIspE; 10 mM DMSO stock stored at −20 °C, measured after 3 months",> 500 µM
same,IC50,"EcIspE; analytical sample, DMSO at RT, 0 days of incubation, dissolved in methanol shortly before the assay",> 500 µM
same,IC50,"EcIspE; analytical sample, DMSO at RT, 1 day of incubation, dissolved in methanol shortly before the assay",> 500 µM
same,IC50,"EcIspE; analytical sample, DMSO at RT, 2 days of incubation, dissolved in methanol shortly before the assay",> 500 µM
same,IC50,"EcIspE; analytical sample, DMSO at RT, 3 days of incubation, dissolved in methanol shortly before the assay",397 µM
same,IC50,EcIspE; [5],75 ± 16 µM
same,IC50,"EcIspE; fractions of second purification, dissolved in ACN",> 1370 µM
same,IC50,"EcIspE; fractions of second purification, dissolved in MeOH",> 1370 µM
same,IC50,EcIspE; [6],32 ± 6 µM
same,IC50,"[2]; NF54, 48 h, analytical sample, DMSO at RT, 2 days of incubation, dissolved in methanol shortly before the assay",3.5 ± 0.3 µM
same,IC50,"[2]; NF54, 96 h, analytical sample, DMSO at RT, 4 days of incubation, dissolved in methanol shortly before the assay",2.7 ± 0.3 µM
same,IC50,"[2]; NF54, fresh batch",7.3 ± 0.8 µM
same,IC50,"[2]; NF54, old batch (decomposed DMSO stock)",0.43 ± 0.01 µM
same,"reduction in activity against PfNF54, fresh batch vs old batch",[2]; fresh batch compared with old decomposed batch,17 fold
same,inhibition at 100 µM,A549,-0.3%
same,inhibition at 100 µM,HEK293,28%
same,inhibition at 100 µM,HepG2,44%
